Assay results published in patent US20200268728A1, “DRUG TARGETING CANCER STEM CELL” (Sumitomo Dainippon Pharma Co., Ltd., priority 2016, published 2020).

Key:
NCI-H1437 = experiment: Sphere-forming ability of cultured cancer cell lines (Test Example 10); format: cell-based; settings: Homo sapiens, 96 h; NCI-H1437 lung cancer cell line, 4 days
Experimental: (§1) The colon cancer cell lines SW480, DLD1, HCT15, HT29, SW948, LS174T, LS411N, SW620, LoVo, HCT116, Colo205, and Hs698T, the pancreatic cancer cell lines MiaPaca2, HPAFII, Capan2, and Panc1, the head and neck cancer cell line FaDu, the breast cancer cell lines HCC1954 and T47D, the bladder cancer cell line SW780, the liver cancer cell line HepG2, the neuroblastoma cell lines U87MG and U251, the lung cancer cell lines H460, H1437, and A549, the prostate cancer cell lines DU145 and PC3, the soft tissue tumor cell line HT1080, the testicular cancer cell line NTERA2, and the ovarian cancer cell line SKOV3 was suspended in the sphere formation medium (DMEM-F12 medium of Test Example 3 was used), and seeded in a 384-well plate with Ultra-Low Attachment surface (Corning) in an amount of 5×10^3-10×10^3 cells/well. The compound of Example 24 was then added into each well to adjust the final concentration to 10-10000 nmol/L. The plate was cultured at 37° C. and 5% carbon dioxide in an incubator for 4 days. After the culture, CellTiterGlo (Promega) was added into all of the wells, and the plate was allowed to stand at room temperature for 10 minutes to measure the intensity of luminescence of each well. The concentrations of each test compound for 50% inhibition of cell proliferation to the cell lines (Sphere IC50 value; μmol/L) was calculated from the measured intensity of luminescence. When each gene mutation in Table is reported, the mutation is represented by “+” (gene mutation information is cited from the ATCC website (https://www.atcc.org/en/Products/Cells_and_Microorganisms/Cell_Lines/Cell_lines_by_genetic_mutation.aspx), Cancer Cell Line Encyclopedia (https://portals.broadinstitute.org/ccle_legacy/home), Proc. Natl. Acad. Sci. USA 94 (1997) 10330-10334).

HCC1954 = experiment: as above; format: cell-based; settings: Homo sapiens, 96 h; HCC1954 breast cancer cell line, 4 days
Experimental: as §1

PC-3 = experiment: as above; format: cell-based; settings: Homo sapiens, 96 h; PC-3 prostate cancer cell line, 4 days
Experimental: as §1

LS 174T = experiment: as above; format: cell-based; settings: Homo sapiens, LS174T, 96 h; LS 174T colon cancer cell line, 4 days
Experimental: as §1

HCT-116 cells = experiment: Test for inhibiting sphere-forming ability of cancer cells (Test Example 1); format: cell-based, human; settings: Homo sapiens, 96 h, non-adherent serum-free sphere culture, 4 days, CellTiter-Glo, read-out: IC50 (μmol/L), Sphere IC50 value, concentration for 50% inhibition of cell proliferation
Experimental: The reliable methods established for measuring the self-renewal ability of cells which is one of the CSC's properties include a method for measuring the sphere-forming ability of cancer cells in non-adherent condition in the absence of serum (Cancer Res 65, 5506-5511 (2005)). HCT-116 cells were available from the American Type Culture Collection (ATCC). HCT-116 cells were cultured at 37° C. and 5% CO2 using the McCoy's 5a medium containing 10% fetal bovine serum (FBS), 100 U/ml penicillin, and 100 μg/ml streptomycin. HCT-116 cells were seeded in a 384 Well Black Clear Bottom Ultra-Low Attachment Microplate (Corning Cat. No. 3827) in an amount of 350-800 cells/well using the DMEM/F12 medium containing 2% B27 supplement (GIBCO), 20 ng/mL epidermal growth factor (EGF) (peprotech), 10 ng/mL basic fibroblast growth factor (bFGF) (peprotech), 5 μg/mL insulin (Sigma), and 1% penicillin/streptomycin. The test compounds were added into each well to adjust the final concentration of DMSO to 0.1%, and the cells were cultured for 4 days. The number of viable cells in each well was then measured with CellTiter-Glo® Luminescent Cell Viability Assay (Promega) to calculate the concentration of each test compound for 50% inhibition of cell proliferation (Sphere IC50 value; μmol/L).
The experiment of Test Example 1 was performed for the compounds of each Example.

IC50 (NCI-H1437): 3.88 µM
IC50 (HCC1954): 23 nM
IC50 (PC-3): > 10 µM
IC50 (LS 174T): 15 nM
IC50 (HCT-116 cells): < 0.01 µmol/L
SMILES: O=C(Nc1cn(Cc2cc(F)c(F)c(F)c2)cn1)c1cnc(CO)c(C(F)F)c1 [Example 24, 5-(difluoromethyl)-6-(hydroxymethyl)-N-[1-(3,4,5-trifluorobenzyl)-1H-imidazol-4-yl]nicotinamide]
